Assays:
protein kinase C = experiment: Protein Kinase C Inhibition (PKC assay, histone H1 phosphorylation); assay type: biochemical; settings: 10 minutes; histone H1 substrate; rat brain enzyme
Method: The protein kinase C (PKC) assay is designed to duplicate the in vivo conditions required for protein kinase C function. Therefore, pH, salt and cofactor concentrations are similar to physiologic levels. A lysine rich histone H1 is used in the assay as the phosphorylation acceptor protein because it is readily available and serves as a good substrate for protein kinase C. Enzyme is prepared from rat brain and is purified to apparent homogeneity as determined by a single band on silver stained sodium dodeceyl sulfate (SDS)-polyacrylamide.
In the screening assay, phosphatidylserine (PS) and diacylglycerol (DAG) are co-sonicated to form unilamellar and multilamellar vesicles. The concentrations of lipids in the assay are suboptimal to maximize the detection potential for inhibitors. Potential inhibitor compounds are added to the assay in dimethylsulfoxide (DMSO) at three concentrations to give final inhibitor concentrations of 4.3, 43 and 218 μm, respectively. The assay is started with the addition of enzyme and stopped after 10 minutes by the addition of a 25% trichloroacetic acid (TCA) solution and 1.0 mg/ml bovine serum albumin (BSA). The radioactive histone product is retained and washed on glass fiber filters that allow the unreacted ^32 P-ATP to pass through. The amount of phosphorylation is determined by the radioactivity as measured in a scintillation counter. Controls are included in every assay to measure: background activity in the absence of enzyme, activity in the absence of lipids, and the maximum enzyme activity with saturating levels of the activator lipids.
HEPES is N-[2-hydroxyethyl] piperazine-N'-[2-ethanesulfonic acid] and EGTA is Ethylene-bis(oxyethylenenitrilo) tetraacetic acid.
Protein kinase C assay results are shown in Table 3 in the column labeled PKC. Results are shown as IC50, which is the concentration of test compound needed to inhibit 50% of the protein kinase C activity as compared with levels of protein kinase C activity in controls.

[1] = target: cAMP dependent protein kinase (PKA); experiment: cAMP Dependent Protein Kinase (PKA) Assay; assay type: biochemical; settings: 10 min; catalytic subunit of PKA
Method: Compounds found to be inhibitors of protein kinase C activity are tested for inhibitory activity against protein kinase (PKA). This enzyme, like protein kinase C, plays an important role in cell-cell communication and is activated by a second messenger, cAMP. Secondary screening against PKA is useful for ascertaining the selectivity of the compounds of the invention. A cAMP dependent protein kinase assay utilizes a catalytic subunit of PKA (Sigma Chemical Company, St. Louis, Missouri) that is mixed with buffer before addition of the inhibitor in dimethylsulfoxide (DMSO). The assay is started by the addition of ^32 P-ATP and the reaction is allowed to proceed for 10 min before stopping with 25% trichloroacetic acid (TCA) and 1.0 mg/ml bovine serum albumin (BSA). The phosphorylated protein is isolated by filtration and the radioactivity is counted in a beta scintillation counter.
PKA assay results are shown in Table 5 in the column labeled PKA. […] The tested compounds of the invention are selective for protein kinase C, and have no effect on cAMP dependent protein kinase. This is seen by a comparison of Tables 3 and 5. […] Thus, the compounds of the invention should have minimal or no effect on the metabolic pathways associated with stimulation of protein kinase by cAMP.

[2] = test system: human keratinocytes (NHEK cells); experiment: Human Keratinocyte Inhibition (3H-thymidine incorporation); assay type: cell-based
Method: Proliferating keratinocytes (NHEK cells purchased from Clonetics, Inc., San Diego, Calif.) in second passage were grown in Keratinocyte Growth Medium (KGM) (Clonetics, Inc.) Cells are trypsinized (0.025% trypsin, Clonetics), counted with a hemacytometer (Scientific Products), and seeded at a concentration of 2,500 cells/well in a 96 well microtiter plate. After allowing cells to attach to the surface overnight, the culture medium is aspirated and replaced with […] of fresh KGM. Test agents are evaluated and IC50,s are ^3 H-thymidine determined according to the ^3 H-thymidine incorporation procedures described as in Example 8. IC50 is the concentration of test compound required to inhibit fifty percent of the incorporation of H-thymidine into proliferating cells not exposed to test agent.

neutrophils = experiment: Neutrophil Superoxide Anion (O2 -) Release Assay; assay type: cell-based; settings: Homo sapiens, 0.5 h, PMA-stimulated, 37° C. for 30 min
Method: Neutrophils are isolated form whole blood collected from human volunteers. All reagent materials are obtained from Sigma Chemical Company with the exception of isotonic saline (Travenol Laboratories, Inc., Deerfield, Ill.) and lymphocyte separation medium (Organon Teknika, Durham, N.C.).
Whole blood is drawn and mixed with sodium heparin (final conc. 10 units/ml) to prevent clotting. An equal volume of dextran (3.0%) in isotonic saline is added, mixed, and allowed to settle for 30 min to bind red blood cells (RBC). Supernatant is removed, underlayered with lymphocyte separation medium and centrifuged for 40 min at 400 xg in a centrifuge (Beckman GPR, Norcross, Ga.). The pellet is alternately resuspended in 0.2% and 1.6% NaCl to lyse RBCs before washing with Hank's Balanced Salt Solution (HBSS). The washed pellet is resuspended in 10 ml HBSS and placed on ice before counting on a hemacytometer.
The neutrophil cell concentration is adjusted to 2×10^6 cells/ml with HBSS before adding 0.8 ml cells to 12×75 mm polypropylene test tubes (Fisher Scientific). Test agents are diluted to determine dose response and added at 10X final concentration at a volume of 0.1 ml/tube in duplicate. Then 10X concentrations of cytochrome C (15 mg/ml) with catalase (3000 units/ml) either alone or containing 25 ng/ml phorbol 12-myristate 13-acetate (PMA) are added at a volume of 0.1 ml/tube and incubated at 37° C. for 30 min before stopping the reaction by placing tubes on ice. Tubes are then centrifuged at 900 xg for 10 min, 0.5 ml supernatant is removed and added to 0.5 ml H2 O in a microcuvette. Optical density (OD) of cytochrome c is read in a spectrophotometer (Shimadzu) at 550 nm. The ΔOD of cytochrome c is obtained between PMA-stimulated and non-stimulated tubes, and the dose responses of the test agents are compared to the positive controls (which contain HBSS in place of test agents). PMA stimulates O2 production which reduces cytochrome c. Reducing cytochrome c increases its absorbance, and the change in OD of cytochrome c is proportional to the amount of O2 produced by PMA stimulation. Inhibition of the O2 - burst by test compounds of the invention is seen as a reduction in the change in optical density. Inhibition is expressed as IC50 μM and is the amount of test compound that will inhibit fifty percent of the PMA-stimulated respiratory burst, i.e. O2 production.

[3] = Solubility remark in tumor cell growth test; assay type: physicochemical; set-up: key: *: indicates that the compound was too insoluble to test; settings: footnote mark in Table 6
MCF-7 = experiment: Human Tumor Cell Growth Inhibition (3H-thymidine uptake); assay type: cell-based; settings: MCF7; MCF-7 human breast tumor cell line; 18-24 hrs; read-out: MCF-7 (IC50, 3H-thymidine incorporation)
Source text: MCF-7 a human breast tumor cell line and MCF-7/ADR an adriamycin resistant line of MCF-7 cells were obtained from the National Cancer Institute, Frederick, Md. CEM cells (ATCC accession number CCL 119) were obtained from the American Type Culture Collection, Rockville, Md.
Human tumor cells are trypsinized (0.05% trypsin, GIBCO), counted with a hemacytometer and seeded at a concentration of 10,000 cells/well in a 96 well microtiter plate. After allowing cells to attach to the surface overnight, the culture medium is aspirated and replaced with 100 μl of fresh medium. Test agents are diluted to determine dose response at 2X final concentration and added in quadruplicate at 100 μl/well to bring the total volume of each well to 200 μl. The microtiter plate is then incubated at 3 37° C. 5% CO2 overnight (18-24 hrs) before ^3 H-thymidine is added at a concentration of 0.5 μCi/well in 50 μl culture medium. The plate is incubated again for 4 hrs under the same conditions as above. Supernatant is then aspirated and 50 μl trypsin (0.05%, GIBCO) is added to each well. Cells are checked microscopically to determine detachment from surfaces, and plates are then harvested with a cell harvester (PHD, Cambridge Technology, Inc.) Filter papers corresponding to wells are placed in scintillation vials and counted to determine the amount of ^3 H-thymidine incorporated by the cells. […]

IC50 (protein kinase C) | IC50 [1] | IC50 [2] | IC50 (neutrophils) | IC50 (MCF-7) | SMILES | MCF-7: too insoluble to test [3]
30 µM | > 218 µM | 11.9 µM | > 10 µM | – | COc1c2occc2c(S(=O)(=O)NCCCNCCCCNCCCN)c2ccc(=O)oc12 [Compound 1, N-[3-[4-(3-amino-1-propyl)-amino-1-butyl]-amino-1-propyl]-s-methyl-furo[3,2-g]coumarin-5-sulfonamide] | *
17 µM | > 218 µM | 9.5 µM | > 10 µM | 11 µM | COc1c2occc2c(S(=O)(=O)NCCCN(C)CCCNS(=O)(=O)c2c3ccoc3c(OC)c3oc(=O)ccc23)c2ccc(=O)oc12 [Compound 4] | –
21 µM | > 218 µM | 15.4 µM | > 10 µM | 5.5 µM | COc1c2occc2c(S(=O)(=O)NCCCCNCCCNS(=O)(=O)c2c3ccoc3c(OC)c3oc(=O)ccc23)c2ccc(=O)oc12 [Compound 3] | –
24 µM | > 218 µM | 1.4 µM | > 10 µM | – | COc1c2occc2c(S(=O)(=O)NCCCNCCCCNCCCNS(=O)(=O)c2c3ccoc3c(OC)c3oc(=O)ccc23)c2ccc(=O)oc12 [Compound 2] | *
33 µM | – | – | – | – | COc1c2occc2c(S(=O)(=O)NCCCNCCCNS(=O)(=O)c2c3ccoc3c(OC)c3oc(=O)ccc23)c2ccc(=O)oc12 [Compound 5] | –

Source: US5216014A, “Furo-coumarinsulfonamides as protein kinase C inhibitors” (Sphinx Pharmaceuticals Corporation, priority 1991, dated 1993)
